# Earlier results in patent US7390922B2, “Phenolic acid salts of gabapentin in liquid and/or semi-solid dosage forms and methods of use” (Kiel Laboratories, Inc., priority 2003, dated 2008).
# Experiments:
# [1] = target: gb1a-gb^2 heterodimer and post-synaptic GABAB receptor (Homo sapiens, UniProt Q9UBS5)
# [2] = in water and across a wide range of pH
# gb1a-gb^2 heterodimer and post-synaptic GABAB receptor, sequence (Q9UBS5 15-961 limits assumed): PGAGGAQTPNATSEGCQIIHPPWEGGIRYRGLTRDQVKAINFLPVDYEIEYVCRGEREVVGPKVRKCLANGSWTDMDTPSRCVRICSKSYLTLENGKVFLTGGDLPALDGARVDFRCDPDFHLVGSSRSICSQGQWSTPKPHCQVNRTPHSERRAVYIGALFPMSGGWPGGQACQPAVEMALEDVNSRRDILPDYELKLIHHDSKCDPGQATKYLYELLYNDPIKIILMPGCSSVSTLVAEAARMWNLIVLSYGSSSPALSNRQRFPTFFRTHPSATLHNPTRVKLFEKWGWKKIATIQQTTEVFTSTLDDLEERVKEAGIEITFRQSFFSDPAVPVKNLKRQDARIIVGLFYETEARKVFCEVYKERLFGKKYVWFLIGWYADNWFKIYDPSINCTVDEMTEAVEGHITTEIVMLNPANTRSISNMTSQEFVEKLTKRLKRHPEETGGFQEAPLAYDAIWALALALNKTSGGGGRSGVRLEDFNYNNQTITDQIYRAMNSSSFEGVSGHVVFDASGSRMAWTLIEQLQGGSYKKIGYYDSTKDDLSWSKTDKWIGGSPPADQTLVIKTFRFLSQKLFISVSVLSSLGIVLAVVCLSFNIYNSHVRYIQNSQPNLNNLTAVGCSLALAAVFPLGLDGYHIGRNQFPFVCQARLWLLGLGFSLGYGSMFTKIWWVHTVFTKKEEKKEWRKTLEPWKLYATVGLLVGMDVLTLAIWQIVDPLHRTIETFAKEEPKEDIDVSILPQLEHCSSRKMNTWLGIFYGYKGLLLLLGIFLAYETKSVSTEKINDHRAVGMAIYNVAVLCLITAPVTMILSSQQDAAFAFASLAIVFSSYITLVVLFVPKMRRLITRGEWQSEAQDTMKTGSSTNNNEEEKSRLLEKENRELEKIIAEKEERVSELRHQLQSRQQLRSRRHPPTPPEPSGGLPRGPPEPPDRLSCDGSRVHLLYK
# gb1a-gb^2 heterodimer and post-synaptic GABAB receptor, sequence (O75899 42-941 partner): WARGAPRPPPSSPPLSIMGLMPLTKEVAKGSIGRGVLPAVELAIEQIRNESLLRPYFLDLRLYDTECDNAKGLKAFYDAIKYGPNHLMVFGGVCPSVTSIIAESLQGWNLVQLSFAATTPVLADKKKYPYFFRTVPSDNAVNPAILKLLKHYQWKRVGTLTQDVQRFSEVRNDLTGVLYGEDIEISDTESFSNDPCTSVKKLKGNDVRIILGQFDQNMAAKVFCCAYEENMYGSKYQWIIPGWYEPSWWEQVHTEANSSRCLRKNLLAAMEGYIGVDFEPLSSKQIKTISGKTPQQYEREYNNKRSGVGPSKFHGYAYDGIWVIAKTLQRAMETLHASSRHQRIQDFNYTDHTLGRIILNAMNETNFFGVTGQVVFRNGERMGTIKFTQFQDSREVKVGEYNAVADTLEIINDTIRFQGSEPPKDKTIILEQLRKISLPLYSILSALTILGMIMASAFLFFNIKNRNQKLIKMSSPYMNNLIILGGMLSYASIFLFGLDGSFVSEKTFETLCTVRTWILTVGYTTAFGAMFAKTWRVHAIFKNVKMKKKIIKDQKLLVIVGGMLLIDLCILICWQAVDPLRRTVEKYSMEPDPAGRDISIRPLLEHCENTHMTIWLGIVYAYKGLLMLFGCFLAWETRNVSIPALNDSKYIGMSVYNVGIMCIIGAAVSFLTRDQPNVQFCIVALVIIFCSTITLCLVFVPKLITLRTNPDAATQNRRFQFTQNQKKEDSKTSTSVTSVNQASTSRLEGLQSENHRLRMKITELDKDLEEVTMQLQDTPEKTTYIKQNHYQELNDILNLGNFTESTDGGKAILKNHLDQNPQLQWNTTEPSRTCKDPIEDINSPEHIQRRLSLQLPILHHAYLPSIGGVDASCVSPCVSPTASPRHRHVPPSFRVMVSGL
smiles,measurement,setting,value
"NCC1(CC(=O)O)CCCCC1 [gabapentin, l-(amino methyl) cyclohexaneacetic acid]",time of peak plasma gabapentin concentrations,"adults, post-dose",2 to 3 h
same,absolute bioavailability,"after administration of 300 mg, dose-dependent",approximately 60%
same,metabolism,in vivo,is not metabolized
same,plasma protein binding,in vivo,does not bind to plasma proteins
same,route of elimination,in vivo,eliminated via glomerular filtration
same,blood-brain barrier passage,unlike GABA,able to cross the blood-brain barrier
same,receptor activity,[1],selective agonist
same,solubility,[2],freely soluble in water
